Consider two molecules from patent US10738024B2, “Compounds for treatment of angiogenesis-mediated diseases” (Indiana University Research and Technology Corporation, priority 2013, dated 2020).

“Also recorded” adds a separate entry of the source.

The subject of assay [1] is HUVECs. In words: EdU incorporation (DNA synthesis) in HUVECs. The assay is classed as cell-based, human. The settings on record: 24 hours treatment, 10 μM EdU pulse; listed as SH-11052 (2). How it is done:
(§1) In order to confirm the inhibition of cell proliferation, incorporation of 5-ethynyl-2′-deoxyuridine (EdU) into endothelial cells in the presence of SH-11052 (2) was further monitored. Particularly, cells (25,000 per coverslip) were seeded onto coverslips coated with Attachment Factor (Cell Systems, Kirkland, Wash., USA) placed in a 6-well plate and incubated with the indicated concentrations of SH-11052 (2) in EGM-2 for 24 hours at 37° C. and 5% CO2. The cells were then serum starved for 8 hours and the medium was replaced with EGM-2 containing 10 μM EdU. The plate was further incubated for another 8 hours before processing the cells for detection of labeled DNA (according to the manufacturer's instructions for the Click-iT EdU assay kit). Images were taken using an EVOS fluorescence microscope (AMG, Mill Creek, Wash., USA) and the number of DAPI stained and EdU stained cells were counted in six randomly chosen fields using ImageJ software.

Assay [2] has as its system HRECs. In words: EdU incorporation (DNA synthesis) in HRECs. The assay is classed as cell-based, human. The settings on record: 24 hours treatment, 10 μM EdU pulse; listed as SH-11052 (2). The protocol: as §1
Assay [3] has as its system p38 MAPK. Put plainly: Phosphorylation of p38 MAPK in HRECs after TNF-α (immunoblot). The assay is classed as cell-based, human. The protocol: (§2) HRECs were seeded at 10^5 cells/well in a 6-well plate and after 24 hours of incubation at 37° C., cells were serum starved in 0.1% serum-EBM-2 for 8 hours. Cells were then treated with the indicated concentrations of SH-11052 (2) for one hour before the addition of 20 ng/ml of TNF-α. After 20 minutes, cells were lysed in NP-40 Lysis buffer containing 25 mM HEPES pH 7.4, 1% NP-40, 150 mM NaCl, 10% glycerol, 1 mM sodium orthovanadate, 10 mM sodium fluoride, 1 mM sodium pyrophosphate, 1 mM PMSF, 2.5 mg/ml aprotinin, 1 mM pepstatin, and 1 mM leupeptin. Equal amounts of proteins (80 μg), as measured by a Bradford assay, were run on 10% SDS-PAGE, transferred to PVDF membrane, blocked with 5% BSA in TBS-0.05% Tween-20 and immunoblotted with the indicated primary antibodies (1:1000 in 1% BSA in TBS-0.05% Tween-20) overnight at 4° C. After three washes in TBS-0.05% Tween-20, HRP-conjugated secondary antibodies (1:5000 in 5% BSA in TBS-0.05% Tween-20) were applied for one hour at room temperature. After three washes, the protein bands were detected and densitized using ECL Prime western blot detection reagent (GE Life Sciences, Piscataway, N.J., USA) and an XRS gel documentation system running Quantity One software (Bio-Rad). Target protein band intensity was normalized to housekeeping gene α-tubulin. […]

For assay [4], the system named is Akt. In words: Phosphorylation of Akt in HRECs upon VEGF stimulation (immunoblot). The conditions noted are these: 100 ng/ml VEGF, 20 minutes. The assay is classed as cell-based, human. How it is done:
as §2, with “of 100” for “of 20”, “ng/ml VEGF.” for “ng/ml of TNF-α.”

Assay [5] deals with HRECs. Put plainly: Migration of HRECs. The assay is classed as cell-based, human.
Assay [6] concerns p21, CDK1, IL-6 and IL-8. In words: Gene expression effects on p21, CDK1, IL-6 and IL-8 (data not shown). Type of assay: cell-based. The conditions noted are these: compared with cremastranone.
Assay [7] deals with oxygen-induced retinopathy (OIR). Put plainly: Oxygen-induced retinopathy (OIR) mouse model, intravitreal injection. Type of assay: in vivo, C57BL/6 mice. The settings on record: single intravitreal dose, estimated 1 μM, injected P12, read P17; listed as SH-11037 (6c). How it is done:
Particularly, neonatal C57BL/6 mice (n=3-4 pups per group) were exposed to 75% oxygen from postnatal day 7 (P7) until P12 and brought to room air to cause ischemia and extensive neovessel formation at P17. The hyperoxia obliterates the normal retinal vasculature, prompting aberrant overgrowth including intravitreal vascular tufts, once returned to normoxia. Further, mice were injected with PBS alone (vehicle) or PBS containing SH-11037 (6c) to give the estimated intravitreal concentrations of 1.0 μM using a 33G needle, under isoflurane anesthesia at the time of return to room air on P12. At P17, the mice were euthanized, eyes fixed, and retinal wholemounts were prepared.
Wholemounts were stained with AlexaFluor488-isolectin B4 and imaged on a Zeiss LSM700 confocal microscope. Neovascular area, as a percentage of total retinal area, was calculated using ImageJ with the SWIFT_NV plugin.

Turning to `COc1ccc(CC2COc3cc(OC)c(O)c(O)c3C2=O)cc1O` (single isomer, unassigned) [Compound 2], in assay [1], the “DNA synthesis (EdU incorporation) in HUVECs” value is reported as “blocked EdU incorporation; also recorded: significantly inhibited in a dose dependent manner”. The “DNA synthesis (EdU incorporation) in HRECs” value in assay [2] is “blocked EdU incorporation; also recorded: significantly inhibited in a dose dependent manner”. Besides, in assay [3], the “phosphorylation of p38 MAPK” value is given as “inhibited phosphorylation”. The “activation (phosphorylation) of Akt” value in assay [4] is on record as “inhibited activation”.

On to `COc1ccc(CC2COc3cc(OC)c(OC)c(OC)c3C2=O)cc1OC(=O)[C@H](Cc1ccccc1)NC(=O)OC(C)(C)C` (stereo partly drawn) [Compound 6c, (2S)-2-methoxy-5-((5,6,7-trimethoxy-4-oxochroman-3-yl)methyl)phenyl 2-((tert-butoxycarbonyl)amino)-3-phenylpropanoate], for which the “migration of HRECs” value in assay [5] is “blocked migration”. In addition, the “gene expression effects on p21, CDK1, IL-6 and IL-8” value in assay [6] is listed as “did not share cremastranone's gene expression effects”. Further, the “neovascular area / neovascularization in vivo” value in assay [7] was “blocked neovascularization in vivo; also recorded: significantly decreased neovascular area”.
